According to ChEMBL document CHEMBL3137667, “[Drug-induced liver injury; fourteenth updated edition of the bibliographic database of liver injuries and related drugs]” (Gastroenterol Clin Biol, 2004):

Legend:
[1] = Highest frequency of moderate liver toxicity observed during clinical trials, expressed as a percentage. [column '% BIOL' in source]; conditions: human
[2] = Highest frequency of acute liver toxicity observed during clinical trials, expressed as a percentage. [column '% AIGUE' in source]; conditions: human
[3] = Presence of at least one case with successful reintroduction. [column 'REINT' in source]; conditions: human
[4] = Times to onset, minimal and maximal, observed in the indexed observations. [column 'DELAI' in source]; conditions: human
[5] = Proposed mechanism(s) of liver damage. [column 'MEC' in source]; conditions: human
[6] = human, serum
[7] = human, serum; remark: listed apart in the source
[8] = human
[9] = human; remark: listed apart in the source
[10] = human; remark: listed apart in the source
[11] = human, serum, 4383 h
[12] = human; remark: listed apart in the source
[13] = human; remark: listed apart in the source
[14] = human; remark: listed apart in the source
[15] = human; remark: listed apart in the source
[16] = human; remark: listed apart in the source
[17] = human; remark: listed apart in the source
[18] = human; remark: listed apart in the source
[19] = Comments (NB not yet translated). [column 'COMMENTAIRES' in source]; conditions: human
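Throughout, for Hepatotoxicity (association with vascular disease): count of indexed literature references reporting vascular liver injury in humans, e.g. peliosis hepatitis, hepatic veno-occlusive disease or Budd-Chiari syndrome.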
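Throughout, for Hepatotoxicity (benign tumour): value is a count of indexed literature references citing a benign tumour confirmed by histopathology.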
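Throughout, for Hepatotoxicity (choleostasis): human cholestatic liver injury, shown by histopathology or by peak ALT or AST elevation over alkaline phosphatase ratio below 2, value counts indexed literature reports.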
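Throughout, for Hepatotoxicity (chronic liver disease): chronic liver injury confirmed by histopathology or persistently raised serum aminotransferase activity beyond 6 months, value given as the count of indexed literature references.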
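Throughout, for Hepatotoxicity (cirrhosis): value is a count of indexed literature references reporting cirrhosis confirmed by histopathology.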
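Throughout, for Hepatotoxicity (cytolytic): human cytolytic liver injury, shown by histopathology or by a ratio above 5 of peak ALT or AST elevation to alkaline phosphatase elevation, value counts indexed references.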
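Throughout, for Hepatotoxicity (granulomatous hepatitis): value is a count of indexed literature references reporting granulomatous liver disease confirmed by histopathology.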
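Throughout, for Hepatotoxicity (malignant tumour): malignant tumour confirmed by histopathology, value gives the count of indexed literature references reporting it.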
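Throughout, for Hepatotoxicity (severe hepatitis): human clinical data: severe hepatitis, meaning potentially life-threatening liver failure or clinically observed cases, the value counts how many indexed literature references report it.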
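Throughout, for Hepatotoxicity (steatosis): steatosis confirmed by histopathology, value is the count of indexed references.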

O=c1ccc2ccccc2o1 [COUMARIN]
Hepatotoxicity (moderate) [1]: 8.7%
Hepatotoxicity (acute) [2]: 4.3%
Hepatotoxicity (successful reintroduction) [3]: yes
Hepatotoxicity (time to onset) [4]: 5 days - 6 months
Hepatotoxicity (mechanism) [5]: Dose-dependant
Hepatotoxicity (moderate) [6]: 8
Hepatotoxicity (acute) [7]: 16
Hepatotoxicity (cytolytic) [8]: 11
Hepatotoxicity (choleostasis) [9]: 1
Hepatotoxicity (severe hepatitis) [10]: 3
Hepatotoxicity (chronic liver disease) [11]: 0
Hepatotoxicity (cirrhosis) [12]: 0
Hepatotoxicity (granulomatous hepatitis) [13]: 0
Hepatotoxicity (association with vascular disease) [14]: 0
Hepatotoxicity (steatosis) [15]: 0
Hepatotoxicity (malignant tumour) [16]: 0
Hepatotoxicity (benign tumour) [17]: 0
Hepatotoxicity (animal toxicity known) [18]: yes

Nc1c2c(nc3ccccc13)CCCC2 [TACRINE]
Hepatotoxicity (moderate) ([1]; Liver): 54%
Hepatotoxicity (acute) ([2]; Liver): 13.4%
Hepatotoxicity (successful reintroduction) [3]: yes
Hepatotoxicity (time to onset) [4]: 1 week - 1.7 years
Hepatotoxicity (mechanism) ([5]; Liver): Dose-dependant
Hepatotoxicity (moderate) [6]: 38
Hepatotoxicity (acute) [7]: 22
Hepatotoxicity (cytolytic) ([8]; Liver): 19
Hepatotoxicity (choleostasis) ([9]; Liver): 1
Hepatotoxicity (severe hepatitis) ([10]; Liver): 2
Hepatotoxicity (chronic liver disease) [11]: 0
Hepatotoxicity (cirrhosis) [12]: 0
Hepatotoxicity (granulomatous hepatitis) ([13]; Liver): 4
Hepatotoxicity (association with vascular disease) [14]: 0
Hepatotoxicity (steatosis) [15]: 1
Hepatotoxicity (malignant tumour) [16]: 0
Hepatotoxicity (benign tumour) [17]: 0
Hepatotoxicity (animal toxicity known) [18]: yes

O=C1c2cccc(O)c2C(=O)c2c(O)cccc21 [DANTHRON]
Hepatotoxicity (moderate) [1]: 0%
Hepatotoxicity (acute) [2]: 0%
Hepatotoxicity (successful reintroduction) [3]: yes
Hepatotoxicity (time to onset) [4]: 2 days - 1 year
Hepatotoxicity (moderate) [6]: 1
Hepatotoxicity (acute) [7]: 0
Hepatotoxicity (cytolytic) [8]: 0
Hepatotoxicity (choleostasis) [9]: 0
Hepatotoxicity (severe hepatitis) [10]: 0
Hepatotoxicity (chronic liver disease) [11]: 1
Hepatotoxicity (cirrhosis) [12]: 0
Hepatotoxicity (granulomatous hepatitis) [13]: 0
Hepatotoxicity (association with vascular disease) [14]: 0
Hepatotoxicity (steatosis) [15]: 0
Hepatotoxicity (malignant tumour) [16]: 0
Hepatotoxicity (benign tumour) [17]: 0
Hepatotoxicity (animal toxicity known) [18]: yes

N=C(N)c1ccc(OCCCCCOc2ccc(C(=N)N)cc2)cc1 [PENTAMIDINE]
Hepatotoxicity (moderate) [1]: 43.5%
Hepatotoxicity (acute) [2]: 0%
Hepatotoxicity (successful reintroduction) [3]: yes
Hepatotoxicity (time to onset) [4]: 1 week - 3 months
Hepatotoxicity (moderate) [6]: 17
Hepatotoxicity (acute) [7]: 4
Hepatotoxicity (cytolytic) [8]: 4
Hepatotoxicity (choleostasis) [9]: 0
Hepatotoxicity (severe hepatitis) [10]: 2
Hepatotoxicity (chronic liver disease) [11]: 0
Hepatotoxicity (cirrhosis) [12]: 0
Hepatotoxicity (granulomatous hepatitis) [13]: 0
Hepatotoxicity (association with vascular disease) [14]: 0
Hepatotoxicity (steatosis) [15]: 1
Hepatotoxicity (malignant tumour) [16]: 0
Hepatotoxicity (benign tumour) [17]: 0
Hepatotoxicity (animal toxicity known) [18]: yes

C[C@H]1O[C@H](O[C@H]2[C@H](O)[C@@H](O)[C@@H](O[C@H]3[C@H](O)[C@@H](O)C(O)O[C@@H]3CO)O[C@@H]2CO)[C@H](O)[C@@H](O)[C@@H]1N[C@H]1C=C(CO)[C@@H](O)[C@H](O)[C@H]1O (stereo partly specified) [ACARBOSE]
Hepatotoxicity (moderate) [1]: 9.9%
Hepatotoxicity (acute) [2]: 0%
Hepatotoxicity (successful reintroduction) [3]: yes
Hepatotoxicity (time to onset) [4]: 1 week - 1.5 years
Hepatotoxicity (moderate) [6]: 6
Hepatotoxicity (acute) [7]: 7
Hepatotoxicity (cytolytic) [8]: 6
Hepatotoxicity (choleostasis) [9]: 0
Hepatotoxicity (severe hepatitis) [10]: 0
Hepatotoxicity (chronic liver disease) [11]: 0
Hepatotoxicity (cirrhosis) [12]: 0
Hepatotoxicity (granulomatous hepatitis) [13]: 0
Hepatotoxicity (association with vascular disease) [14]: 0
Hepatotoxicity (steatosis) [15]: 0
Hepatotoxicity (malignant tumour) [16]: 0
Hepatotoxicity (benign tumour) [17]: 0
Hepatotoxicity (animal toxicity known) [18]: yes

N[C@@H]1C[C@H]1c1ccccc1.N[C@H]1C[C@@H]1c1ccccc1 [TRANYLCYPROMINE]
Hepatotoxicity (moderate) ([1]; Liver): 0%
Hepatotoxicity (acute) ([2]; Liver): 0%
Hepatotoxicity (successful reintroduction) [3]: yes
Hepatotoxicity (moderate) [6]: 0
Hepatotoxicity (acute) [7]: 2
Hepatotoxicity (cytolytic) ([8]; Liver): 2
Hepatotoxicity (choleostasis) ([9]; Liver): 2
Hepatotoxicity (severe hepatitis) ([10]; Liver): 0
Hepatotoxicity (chronic liver disease) [11]: 0
Hepatotoxicity (cirrhosis) [12]: 0
Hepatotoxicity (granulomatous hepatitis) ([13]; Liver): 0
Hepatotoxicity (association with vascular disease) [14]: 0
Hepatotoxicity (steatosis) [15]: 0
Hepatotoxicity (malignant tumour) [16]: 0
Hepatotoxicity (benign tumour) [17]: 0
Hepatotoxicity (animal toxicity known) [18]: yes

CO/N=C(\C(=O)N[C@@H]1C(=O)N2C(C(=O)O)=C(CSc3nc(=O)c(=O)[nH]n3C)CS[C@H]12)c1csc(N)n1 [CEFTRIAXONE]
Hepatotoxicity (moderate) [1]: 30%
Hepatotoxicity (acute) [2]: 4.6%
Hepatotoxicity (comment) [19]: PSEUDOLITHIASE
Hepatotoxicity (time to onset) [4]: 2 days - 25 days
Hepatotoxicity (mechanism) [5]: Dose-dependant
Hepatotoxicity (moderate) [6]: 71
Hepatotoxicity (acute) [7]: 7
Hepatotoxicity (cytolytic) [8]: 3
Hepatotoxicity (choleostasis) [9]: 2
Hepatotoxicity (severe hepatitis) [10]: 0
Hepatotoxicity (chronic liver disease) [11]: 0
Hepatotoxicity (cirrhosis) [12]: 0
Hepatotoxicity (granulomatous hepatitis) [13]: 0
Hepatotoxicity (association with vascular disease) [14]: 0
Hepatotoxicity (steatosis) [15]: 0
Hepatotoxicity (malignant tumour) [16]: 0
Hepatotoxicity (benign tumour) [17]: 0
Hepatotoxicity (animal toxicity known) [18]: yes

COC1=CC(=O)C[C@@H](C)[C@]12Oc1c(Cl)c(OC)cc(OC)c1C2=O [GRISEOFULVIN]
Hepatotoxicity (moderate) [1]: 50%
Hepatotoxicity (acute) [2]: 2.8%
Hepatotoxicity (successful reintroduction) [3]: yes
Hepatotoxicity (time to onset) [4]: 3 days - 4.5 months
Hepatotoxicity (moderate) [6]: 9
Hepatotoxicity (acute) [7]: 5
Hepatotoxicity (cytolytic) [8]: 1
Hepatotoxicity (choleostasis) [9]: 2
Hepatotoxicity (severe hepatitis) [10]: 0
Hepatotoxicity (chronic liver disease) [11]: 0
Hepatotoxicity (cirrhosis) [12]: 0
Hepatotoxicity (granulomatous hepatitis) [13]: 0
Hepatotoxicity (association with vascular disease) [14]: 0
Hepatotoxicity (steatosis) [15]: 0
Hepatotoxicity (malignant tumour) [16]: 0
Hepatotoxicity (benign tumour) [17]: 0
Hepatotoxicity (animal toxicity known) [18]: yes

CC(=O)[C@@]1(O)CC[C@H]2[C@@H]3C=C(Cl)C4=CC(=O)[C@@H]5C[C@@H]5[C@]4(C)[C@H]3CC[C@@]21C [CYPROTERONE]
Hepatotoxicity (moderate) [1]: 20%
Hepatotoxicity (acute) [2]: 13%
Hepatotoxicity (comment) [19]: AC_ANTI-N/pCN
Hepatotoxicity (time to onset) [4]: 4 days - 10 years
Hepatotoxicity (mechanism) [5]: Dose-dependant
Hepatotoxicity (moderate) [6]: 4
Hepatotoxicity (acute) [7]: 21
Hepatotoxicity (cytolytic) [8]: 20
Hepatotoxicity (choleostasis) [9]: 3
Hepatotoxicity (severe hepatitis) [10]: 13
Hepatotoxicity (chronic liver disease) [11]: 1
Hepatotoxicity (cirrhosis) [12]: 1
Hepatotoxicity (granulomatous hepatitis) [13]: 0
Hepatotoxicity (association with vascular disease) [14]: 0
Hepatotoxicity (steatosis) [15]: 0
Hepatotoxicity (malignant tumour) [16]: 5
Hepatotoxicity (benign tumour) [17]: 1
Hepatotoxicity (animal toxicity known) [18]: yes
